Consider five compounds from ChEMBL document CHEMBL4613212, “Insights of synthetic analogues of anti-leprosy agents” (Bioorg Med Chem, 2019).

Holding throughout (type): functional
The subject of assay [1] is Mycobacterium leprae. Put plainly: Anti-leprotic activity against rifampicin-susceptible Mycobacterium leprae subcultures at 4 weeks assessed as ATP level per 10^7 cells at 0.3 mg/L measured by bioluminescence assay (reference value: 425 +/- 64 pg).
Assay [2] relates to Mycobacterium leprae. Put plainly: Anti-leprotic activity against rifampicin-susceptible Mycobacterium leprae subcultures at 4 weeks assessed as [3H]thymidine uptake per 5 times 10^7 cells at 0.3 mg/L incubated for 24 hrs (reference value: 1.41 +/- 0.20 pmol).
Assay [3] relates to Mycobacterium leprae. Put plainly: Anti-leprotic activity against rifampicin-susceptible Mycobacterium leprae primary cultures at 4 weeks assessed as [3H]thymidine uptake per 5 times 10^7 cells at 0.3 mg/L incubated for 24 hrs (reference value: 1.05 +/- 0.16 pmol).
Assay [4] deals with Mycobacterium leprae. Put plainly: Anti-leprotic activity against rifampicin-susceptible Mycobacterium leprae primary cultures at 4 weeks assessed as ATP level per 10^7 cells at 0.4 mg/L measured by bioluminescence assay (reference value: 332 +/- 46 pg).
Assay [5] relates to Mycobacterium leprae. Put plainly: Anti-leprotic activity against rifampicin-susceptible Mycobacterium leprae primary cultures at 4 weeks assessed as ATP level per 10^7 cells at 0.1 mg/L measured by bioluminescence assay (reference value: 332 +/- 46 pg).
Assay [6] deals with Mycobacterium leprae. Kind of assay: Anti-leprotic activity against rifampicin-susceptible Mycobacterium leprae primary cultures at 4 weeks assessed as [3H]thymidine uptake per 5 times 10^7 cells at 0.4 mg/L incubated for 24 hrs (reference value: 1.05 +/- 0.16 pmol).
The subject of assay [7] is Mycobacterium leprae. Kind of assay: Anti-leprotic activity against rifampicin-susceptible Mycobacterium leprae subcultures at 4 weeks assessed as ATP level per 10^7 cells at 0.4 mg/L measured by bioluminescence assay (reference value: 425 +/- 64 pg).
Assay [8] deals with Mycobacterium leprae. Put plainly: Anti-leprotic activity against rifampicin-susceptible Mycobacterium leprae subcultures at 4 weeks assessed as ATP level per 10^7 cells at 0.2 mg/L measured by bioluminescence assay (reference value: 425 +/- 64 pg).
Assay [9] has as its system Mycobacterium leprae. Put plainly: Anti-leprotic activity against rifampicin-susceptible Mycobacterium leprae primary cultures at 4 weeks assessed as [3H]thymidine uptake per 5 times 10^7 cells at 0.2 mg/L incubated for 24 hrs (reference value: 1.05 +/- 0.16 pmol).
The test system of assay [10] is Mycobacterium leprae. Kind of assay: Anti-leprotic activity against rifampicin-susceptible Mycobacterium leprae subcultures at 4 weeks assessed as ATP level per 10^7 cells at 0.1 mg/L measured by bioluminescence assay (reference value: 425 +/- 64 pg).
In assay [11] the test system is Mycobacterium leprae. Kind of assay: Anti-leprotic activity against rifampicin-susceptible Mycobacterium leprae primary cultures at 4 weeks assessed as ATP level per 10^7 cells at 0.3 mg/L measured by bioluminescence assay (reference value: 332 +/- 46 pg).
Assay [12] has as its system Mycobacterium leprae. Kind of assay: Anti-leprotic activity against rifampicin-susceptible Mycobacterium leprae primary cultures at 4 weeks assessed as [3H]thymidine uptake per 5 times 10^7 cells at 0.1 mg/L incubated for 24 hrs (reference value: 1.05 +/- 0.16 pmol).
Assay [13] concerns Mycobacterium leprae. Put plainly: Anti-leprotic activity against rifampicin-susceptible Mycobacterium leprae subcultures at 4 weeks assessed as [3H]thymidine uptake per 5 times 10^7 cells at 0.2 mg/L incubated for 24 hrs (reference value: 1.41 +/- 0.20 pmol).
In assay [14] the test system is Mycobacterium leprae. Put plainly: Anti-leprotic activity against rifampicin-susceptible Mycobacterium leprae primary cultures at 4 weeks assessed as ATP level per 10^7 cells at 0.2 mg/L measured by bioluminescence assay (reference value: 332 +/- 46 pg).
Assay [15] deals with Mycobacterium leprae. Put plainly: Anti-leprotic activity against rifampicin-susceptible Mycobacterium leprae subcultures at 4 weeks assessed as [3H]thymidine uptake per 5 times 10^7 cells at 0.4 mg/L incubated for 24 hrs (reference value: 1.41 +/- 0.20 pmol).
Assay [16] has as its system Mycobacterium leprae. Kind of assay: Anti-leprotic activity against rifampicin-susceptible Mycobacterium leprae subcultures at 4 weeks assessed as [3H]thymidine uptake per 5 times 10^7 cells at 0.1 mg/L incubated for 24 hrs (reference value: 1.41 +/- 0.20 pmol).
Assay [17] relates to Mycobacterium leprae. Put plainly: Anti-leprotic activity against Mycobacterium leprae infected in BALB/c weanling mouse assessed as bacteria killing at 20 mg/kg, ip administrated for 60 days and measured after 1 year by Spearman-Karber technique analysis relative to control.
Assay [18] concerns Mycobacterium leprae. Kind of assay: Anti-leprotic activity against Mycobacterium leprae infected in BALB/c weanling mouse assessed as bacteria killing at 20 mg/kg, ip administrated for 60 days and measured after 1 year by most probable number technique analysis relative to control.
In assay [19] the test system is Mycobacterium tuberculosis. Kind of assay: Antitubercular activity against Mycobacterium tuberculosis H37Rv ATCC 27294 incubated for 7 days by microplate alamar blue assay. To be noted: H37Rv ATCC 27294, 168 h. (In general: Resazurin is reduced to fluorescent resorufin, in cell work by metabolically active cells.)
Assay [20] concerns Mycobacterium tuberculosis. Kind of assay: Antimycobacterial activity against Mycobacterium tuberculosis H37Rv by BACTEC radiometric growth assay.
In assay [21] the test system is Mycobacterium leprae. Kind of assay: Inhibition of PGL1 synthesis in Mycobacterium leprae infected Swiss Webster mouse macrophages assessed as decrease in [U-14C]PA incorporation at 2 uM preincubated for 4 days post infection followed by [U-14C]PA addition and measured after 7 days by liquid scintillation counter analysis relative to control.

The MIC is the smallest concentration in the dilution series that meets the test's criterion for growth inhibition. Low values mean greater potency, high ones weaker potency. Broadly, the inhibition is how much of the control response was suppressed.

In brackets after ≈: the same amount, converted by molar mass.

Turning to `CCCN1CCN(c2cc(O)c3nc4c5c6c7c(C)c(O)c5c(=O)c(c-4oc3c2)NC(=O)/C(C)=C\C=C\[C@H](C)[C@H](O)[C@@H](C)[C@@H](O)[C@@H](C)[C@H](OC(C)=O)[C@H](C)[C@@H](OC)/C=C/O[C@@](C)(O7)C6=O)CC1`, the Activity is reported as 0 pg in the assay on Mycobacterium leprae [1]; 0.84 pmol with Mycobacterium leprae [2]; 0 pmol with Mycobacterium leprae [3]; 0 pg with Mycobacterium leprae [4]; 298 pg in the assay with Mycobacterium leprae [5]; 0 pmol with Mycobacterium leprae [6]. Also, the Activity was found to be 0 pg in the assay with Mycobacterium leprae [7]; 0 pg in the assay on Mycobacterium leprae [8]; 0.79 pmol in the assay on Mycobacterium leprae [9]; 369 pg in the assay on Mycobacterium leprae [10]; 0 pg in the assay on Mycobacterium leprae [11]; 0.97 pmol with Mycobacterium leprae [12]. Also, the Activity is on record as 1.3 pmol in the assay on Mycobacterium leprae [13], 245 pg in the assay on Mycobacterium leprae [14], 0 pmol with Mycobacterium leprae [15] and 0 pmol in the assay on Mycobacterium leprae [16].

On to `CCC(C)N1CCN(c2cc(O)c3nc4c5c6c7c(C)c(O)c5c(=O)c(c-4oc3c2)NC(=O)/C(C)=C\C=C\[C@H](C)[C@H](O)[C@@H](C)[C@@H](O)[C@@H](C)[C@H](OC(C)=O)[C@H](C)[C@@H](OC)/C=C/O[C@@](C)(O7)C6=O)CC1` (stereo in doubt; form 1), for which the Activity is listed as 0 pg in the assay on Mycobacterium leprae [1]; 0.84 pmol in the assay with Mycobacterium leprae [2]; 0 pmol in the assay with Mycobacterium leprae [3]; 0 pg with Mycobacterium leprae [4]; 279 pg in the assay with Mycobacterium leprae [5]; 0 pmol in the assay on Mycobacterium leprae [6]. In addition, the Activity with Mycobacterium leprae [7] is given as 0 pg; in the assay on Mycobacterium leprae [8], 235 pg; in the assay on Mycobacterium leprae [9], 0.76 pmol; in the assay on Mycobacterium leprae [10] it was 335 pg; in the assay on Mycobacterium leprae [11] it was 0 pg; with Mycobacterium leprae [12], 0.92 pmol. In addition, the Activity with Mycobacterium leprae [13] was determined as 1.18 pmol; with Mycobacterium leprae [14], 233 pg; in the assay on Mycobacterium leprae [15], 0 pmol; in the assay on Mycobacterium leprae [16] it was 0 pmol.

On to GENTAMICIN, for which the Activity in the assay on Mycobacterium leprae [17] stood at 60%; in the assay on Mycobacterium leprae [18] it was 58.5%.

In the case of `NC[C@H]1O[C@H](O[C@H]2[C@H](O)[C@@H](O[C@H]3O[C@H](CO)[C@@H](O)[C@H](N)[C@H]3O)[C@H](N)C[C@@H]2N)[C@H](N)C[C@@H]1O` [TOBRAMYCIN], the values for the Activity in the assay with Mycobacterium leprae [17] and with Mycobacterium leprae [18] were 37% and 28.7%, respectively.

As to `CO[C@H]1/C=C/O[C@@]2(C)Oc3c(C)c(O)c4c(O)c(c(/C=N/N5CCN(C)CC5)c(O)c4c3C2=O)NC(=O)/C(C)=C\C=C\[C@H](C)[C@H](O)[C@@H](C)[C@@H](O)[C@@H](C)[C@H](OC(C)=O)[C@@H]1C` [RIFAMPIN], the Activity in the assay with Mycobacterium leprae [1] is 0 pg; in the assay on Mycobacterium leprae [2], 0.73 pmol; in the assay on Mycobacterium leprae [3] it was 0 pmol; in the assay with Mycobacterium leprae [4], 0 pg; in the assay on Mycobacterium leprae [6] it was 0 pmol; in the assay with Mycobacterium leprae [7], 0 pg. Also, the Activity with Mycobacterium leprae [9] was 0.7 pmol; with Mycobacterium leprae [11] it was 0 pg; in the assay on Mycobacterium leprae [13] it was 0 pmol; with Mycobacterium leprae [15], 0 pmol. Further, the results for the MIC in [19] and in [20] were 25 µg/mL (≈ 30.4 µM) and 2 µg/mL (≈ 2.43 µM), respectively. Besides, the inhibition at 2 µM in the assay on Mycobacterium leprae [21] came to 86%.
